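Each compound was tested at five concentrations against cells in 96-well plates for 48 hours. The concentration for 50% growth inhibition is given as GI50. The concentration for full growth arrest is given as TGI.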
How the values were obtained:
Test in all cases: inhibition of tumour cell growth, NCI panel, 48 h
NCI-H460 lung = system: NCI-H460 lung
CCRF-CEM leukemia = system: CCRF-CEM leukemia
LOX IMVI melanoma = system: LOX IMVI melanoma
MDA-MB-435 = system: MDA-MB-435
SF-539 CNS = system: SF-539 CNS
HL-60(TB) leukemia = system: HL-60(TB) leukemia
786-0 renal = system: 786-0 renal
HCT-15 colon = system: HCT-15 colon
SK-OV-3 ovarian = system: SK-OV-3 ovarian
NCI-H23 lung = system: NCI-H23 lung

| Compound | GI50 (NCI-H460 lung) | TGI (NCI-H460 lung) | GI50 (CCRF-CEM leukemia) | TGI (CCRF-CEM leukemia) | GI50 (LOX IMVI melanoma) | TGI (LOX IMVI melanoma) | GI50 (MDA-MB-435) | TGI (MDA-MB-435) | GI50 (SF-539 CNS) | TGI (SF-539 CNS) | GI50 (HL-60(TB) leukemia) | TGI (HL-60(TB) leukemia) | GI50 (786-0 renal) | TGI (786-0 renal) | GI50 (HCT-15 colon) | TGI (HCT-15 colon) | GI50 (SK-OV-3 ovarian) | TGI (SK-OV-3 ovarian) | GI50 (NCI-H23 lung) | TGI (NCI-H23 lung) |
| --- | --- | --- | --- | --- | --- | --- | --- | --- | --- | --- | --- | --- | --- | --- | --- | --- | --- | --- | --- | --- |
| CN1C(=O)N(C)C2C1NC(=S)N2/N=C/C=C/c1ccccc1[N+](=O)[O-] (stereo not given) | 0.701 µM | > 100 µM | 0.822 µM | > 100 µM | 0.87 µM | > 100 µM | 0.271 µM | 0.997 µM | 0.537 µM | 8.44 µM | 0.414 µM | 2.8 µM | 0.835 µM | > 100 µM | 0.889 µM | > 100 µM | 1.18 µM | > 100 µM | 2.75 µM | > 100 µM |
| CC1Cc2c(Cl)ncnc2N(C)c2ccccc21 (stereo not given) | 3.87 µM | > 100 µM | 4.53 µM | > 100 µM | 1.71 µM | 3.43 µM | 3.24 µM | 16.7 µM | 4.56 µM | 37.2 µM | 3.39 µM | 15 µM | 3.23 µM | 11.5 µM | 3 µM | 11.3 µM | 2.37 µM | 12.6 µM | 2.82 µM | 10.9 µM |
| CC1=CC2(C)/C=C(C)/C=C\CC(O)/C=C3/C=CC(=C4C(=O)OC2(CC1C)C4=O)OC3 (stereo not given) | 3.84 µM | 15.7 µM | 0.673 µM | 7.95 µM | 1.63 µM | 3.2 µM | 2 µM | 5.12 µM | 2.49 µM | 6.72 µM | 0.6 µM | > 20.5 µM | 2.25 µM | 4.94 µM | 1.47 µM | 3.69 µM | 19.4 µM | 47.3 µM | 2.66 µM | 7.82 µM |
| O=C(Nc1cccc([N+](=O)[O-])c1)c1cccc(C(=O)Nc2cccc([N+](=O)[O-])c2)c1 | > 61.9 µM | > 100 µM | > 100 µM | > 100 µM | > 100 µM | > 100 µM | > 100 µM | > 100 µM | 27.8 µM | > 100 µM | > 100 µM | > 100 µM | 25.6 µM | > 100 µM | > 100 µM | > 100 µM | 13 µM | > 82.8 µM | > 72.4 µM | > 100 µM |
| Cc1ccc2ccccc2c1CSc1nc(N)nc2c1ncn2CC(C)C |  | > 96.2 µM |  | > 95.5 µM |  | > 100 µM |  | > 84.4 µM |  | > 44.8 µM |  | > 100 µM |  | > 100 µM |  | > 100 µM |  | > 100 µM |  | > 100 µM |
| COC(=O)CC[C@@H](C)[C@H]1CC[C@H]2[C@@H]3CC[C@@H]4C[C@H](O)CC[C@]4(C)[C@H]3CC[C@]12C |  | 39.9 µM |  | 46.4 µM |  | 35.7 µM |  | 33 µM |  | 36 µM |  | 35.5 µM |  | 33.8 µM |  | 33.7 µM |  | 49.9 µM |  | 32.9 µM |
| c1ccc2c(N=NSc3ncnc4nc[nH]c34)c3ccccc3nc2c1 | 0.877 µM | 5.67 µM | 1.31 µM | 6.66 µM | 0.643 µM | 7.14 µM | 1.97 µM | 6.12 µM | 1.1 µM | 3.55 µM | 3.12 µM | 6.96 µM | 1.79 µM | 13.8 µM | 1.15 µM | 10.2 µM | 1.38 µM | 14.2 µM | 1.7 µM | 5.76 µM |
| CC(NNC(=S)N1CCN(c2ccccn2)CC1)c1nccc2ccccc12 (stereo not given) |  | 11.3 µM |  | 1.02 µM |  | 11.2 µM |  | 17 µM |  | 6.43 µM |  | 1.18 µM |  | 13 µM |  | 17.3 µM |  | 15.1 µM |  | 13.7 µM |
| Cn1nc(C(F)(F)F)cc1-c1cc(Cl)c(OCc2ccc(Cl)cc2)c(-c2ccc(Cl)c(C(F)(F)F)c2)c1O | 0.852 µM | 2.21 µM | 0.821 µM | 19.6 µM | 1.16 µM | 3.12 µM | 1.42 µM | 4.18 µM | 1.07 µM | 3.26 µM | 1.12 µM | 2.49 µM | 1.07 µM | 2.63 µM | 0.764 µM | 4.4 µM | 1.43 µM | 4.31 µM | 0.965 µM | 3.86 µM |
| COc1nn(C)cc1Nc1nccc(-c2c[nH]c3c(NC(=O)[C@@H](C)N4CCN(C)CC4)cccc23)n1 | 40.7 µM | > 100 µM | 40.4 µM | > 100 µM | 17.1 µM | 36.5 µM | 24.3 µM | 82.3 µM | 18 µM | 38.4 µM | 28.9 µM | > 100 µM | 28.8 µM | > 100 µM | 37.6 µM | > 100 µM | 44.2 µM | > 100 µM | 40.5 µM | > 100 µM |

Reference: PubChem BioAssay (NCI)
